In brackets after ≈: the same amount, converted by molar mass. A value given as a limit tells only on which side of the number the result lay.

One series deals with Colinus virginianus. To be noted: for LD50: acute, oral, mortality.
The test system of the next series is Rattus norvegicus. Particulars: for LD50: acute, mortality.
In a further series the test system is Apis mellifera. To be noted: acute, mortality.
The subject of a further series is Bibionidae. To be noted: chronic/long-term; duration: 28 days.
A further series relates to Canidae. Particulars: reproduction developmental; duration: 90 days; Dog Other; mortality.
The test system of the next series is Chironomus tentans. Particulars: acute, mortality.
The test system of a further series is Cyprinodon variegatus. Particulars: mortality.
The next series relates to Mus musculus. Particulars: acute; oral; mortality.

Regarding `CC(O)c1ccc(C(F)(F)F)nc1` (centres undefined) [1-(6-(Trifluoromethyl)pyridin-3-yl)ethanol], the LD50 came out at 1040 mg/kg in the series with Colinus virginianus and 2000 mg/kg with Rattus norvegicus.
For the compound `CC(c1ccc(C(F)(F)F)nc1)S(C)(=O)=NC#N` (centres undefined) [Sulfoxaflor], the NOAEL in the series on Anas platyrhynchos (reproductive, reproduction) is 25.9 mg/kg-day; in the series with Canidae, 6.63 mg/kg-day; in the series on Colinus virginianus (reproduction developmental, reproduction), 84.4 mg/kg-day; with Rattus norvegicus (chronic, duration: 2 years, other), 4.24 mg/kg-day; in the series with Rattus norvegicus (repeat dose other, neurology), 25 mg/kg-day; in the series on Rattus norvegicus (subchronic, duration: 90 days, oral, histopathology: nonneoplastic), 6.36 mg/kg-day. For the same compound, the LD50 was over 1050 mg/kg-day in the series with Anas platyrhynchos (short-term, oral, feed, mortality); 0.146 µg/piece with Apis mellifera (duration: 48 hours, oral, unspecified); 0.379 µg/piece with Apis mellifera (duration: 72 hours, dermal); over 1150 mg/kg-day with Colinus virginianus (diet); 676 mg/kg in the series on Colinus virginianus; 750 mg/kg with Mus musculus. The compound also came in with an LD50 in the series with Rattus norvegicus (oral) of 1000 mg/kg. Further, the NOEC with Bibionidae came to 0.0384 mg/L; with Cyprinodon variegatus (chronic/long-term, duration: 38 days), 1.21 mg/L; with Neomysis kadiakensis (chronic/long-term, duration: 28 days, reproduction) it was 0.114 mg/L; in the series on Tagia sp. (chronic/long-term, duration: 8 weeks) it was 0.1 mg/kg. For the same compound, the LC50 was 0.622 µg/mL (≈ 2.24 µM) in the series on Chironomus tentans (duration: 96 hours); 0.119 mg/kg in the series with Chironomus tentans (duration: 10 days); 266 µg/mL (≈ 959 µM) in the series with Cyprinodon variegatus (acute, duration: 96 hours); 0.643 µg/mL (≈ 2.32 µM) in the series on Neomysis kadiakensis (acute, duration: 96 hours, mortality); 0.885 mg/kg in the series on Tagia sp. (acute, duration: 14 days, mortality).

The values above are taken from EPA's ToxValDB 9.5 (doi:10.2903/j.efsa.2014.3692).
